# Species on record: Rattus norvegicus
# Test: Open TG-GATES - Regimen: Single
# Format: toxicity, organism-based, Sprague-Dawley
# Design: regimen Single, gender Male, age 6 weeks
# Settings: in vivo, po, 5 mg/kg, route gavage, dose level Low; for APTT / Bas / Eos / Fbg / Hb / Ht / Lym / MCH / MCHC / MCV / Mono / Neu / PT / Plat / RBC / Ret / WBC: tissue Blood; for KIDNEY_L / KIDNEY_R / KIDNEY_TOTAL: tissue Kidney; for LIVER: tissue Liver; for A/G / ALP / ALT / AST / BUN / CRE / Ca / Cl / DBIL / GLC / IP / K / LDH / Na / PL / RALB / TBIL / TC / TG / TP / gamma-GTP: tissue Plasma
smiles,measurement,setting,value
CC(=N)S [THIOACETAMIDE],TERMINAL_BW,3 h,189.9 g
same,APTT,3 h,17.2 s
same,Bas,3 h,0%
same,Eos,3 h,0.6%
same,Fbg,3 h,225 mg/dL
same,Hb,3 h,13.1 g/dL
same,Ht,3 h,39.7%
same,Lym,3 h,81.4%
same,MCH,3 h,21.3 pg
same,MCHC,3 h,32.9%
same,MCV,3 h,64.6 fL
same,Mono,3 h,6.4%
same,Neu,3 h,11.4%
same,PT,3 h,12.1 s
same,Plat,3 h,105.8 x10_4/uL
same,RBC,3 h,614.6 x10_4/ul
same,Ret,3 h,9.2%
same,WBC,3 h,119.1 x10_2/uL
same,KIDNEY_L,3 h,0.9 g
same,KIDNEY_R,3 h,0.9 g
same,KIDNEY_TOTAL,3 h,1.7 g
same,LIVER,3 h,8.7 g
same,A/G,3 h,2.1
same,ALP,3 h,842.8 IU/L
same,ALT,3 h,31.2 IU/L
same,AST,3 h,64 IU/L
same,BUN,3 h,12.2 mg/dL
same,CRE,3 h,0.5 mg/dL
same,Ca,3 h,10.9 mg/dL
same,Cl,3 h,103.4 meq/L
same,DBIL,3 h,0 mg/dL
same,GLC,3 h,179.8 mg/dL
same,IP,3 h,9.2 mg/dL
same,K,3 h,4.4 meq/L
same,LDH,3 h,97.6 IU/L
same,Na,3 h,138.2 meq/L
same,PL,3 h,149.6 mg/dL
same,RALB,3 h,3.8 g/dL
same,TBIL,3 h,0.3 mg/dL
same,TC,3 h,85.8 mg/dL
same,TG,3 h,70.6 mg/dL
same,TP,3 h,5.6 g/dL
same,gamma-GTP,3 h,2 IU/L
same,TERMINAL_BW,6 h,185.4 g
same,APTT,6 h,17.8 s
same,Bas,6 h,0%
same,Eos,6 h,1%
same,Fbg,6 h,237.8 mg/dL
same,Hb,6 h,13.2 g/dL
same,Ht,6 h,40.2%
same,Lym,6 h,70.4%
same,MCH,6 h,21.2 pg
same,MCHC,6 h,32.9%
same,MCV,6 h,64.4 fL
same,Mono,6 h,9.4%
same,Neu,6 h,19%
same,PT,6 h,12.4 s
same,Plat,6 h,113.6 x10_4/uL
same,RBC,6 h,625.4 x10_4/ul
same,Ret,6 h,9.1%
same,WBC,6 h,94.9 x10_2/uL
same,KIDNEY_L,6 h,0.9 g
same,KIDNEY_R,6 h,0.9 g
same,KIDNEY_TOTAL,6 h,1.8 g
same,LIVER,6 h,8.2 g
same,A/G,6 h,2.2
same,ALP,6 h,729.4 IU/L
same,ALT,6 h,29.8 IU/L
same,AST,6 h,62.4 IU/L
same,BUN,6 h,10.2 mg/dL
same,CRE,6 h,0.6 mg/dL
same,Ca,6 h,10.4 mg/dL
same,Cl,6 h,104.4 meq/L
same,DBIL,6 h,0.002 mg/dL
same,GLC,6 h,179.6 mg/dL
same,IP,6 h,9 mg/dL
same,K,6 h,4.9 meq/L
same,LDH,6 h,76 IU/L
same,Na,6 h,137.2 meq/L
same,PL,6 h,132.2 mg/dL
same,RALB,6 h,3.8 g/dL
same,TBIL,6 h,0.4 mg/dL
same,TC,6 h,80.2 mg/dL
same,TG,6 h,41.4 mg/dL
same,TP,6 h,5.6 g/dL
same,gamma-GTP,6 h,1.2 IU/L
same,TERMINAL_BW,9 h,186.4 g
same,APTT,9 h,16.8 s
same,Bas,9 h,0%
same,Eos,9 h,0.6%
same,Fbg,9 h,216.2 mg/dL
same,Hb,9 h,12.8 g/dL
same,Ht,9 h,39.3%
same,Lym,9 h,79.2%
same,MCH,9 h,21.2 pg
same,MCHC,9 h,32.5%
same,MCV,9 h,65.1 fL
same,Mono,9 h,6.2%
same,Neu,9 h,13.8%
same,PT,9 h,12.3 s
same,Plat,9 h,102.7 x10_4/uL
same,RBC,9 h,606 x10_4/ul
same,Ret,9 h,9.4%
same,WBC,9 h,94.1 x10_2/uL
same,KIDNEY_L,9 h,0.9 g
same,KIDNEY_R,9 h,0.9 g
same,KIDNEY_TOTAL,9 h,1.7 g
same,LIVER,9 h,7.8 g
same,A/G,9 h,2.3
same,ALP,9 h,794.4 IU/L
same,ALT,9 h,32 IU/L
same,AST,9 h,61.6 IU/L
same,BUN,9 h,11.6 mg/dL
same,CRE,9 h,0.5 mg/dL
same,Ca,9 h,10.3 mg/dL
same,Cl,9 h,103.8 meq/L
same,DBIL,9 h,0.01 mg/dL
same,GLC,9 h,180 mg/dL
same,IP,9 h,9.8 mg/dL
same,K,9 h,4.4 meq/L
same,LDH,9 h,78.4 IU/L
same,Na,9 h,137.4 meq/L
same,PL,9 h,138.6 mg/dL
same,RALB,9 h,3.8 g/dL
same,TBIL,9 h,0.4 mg/dL
same,TC,9 h,84.4 mg/dL
same,TG,9 h,35.4 mg/dL
same,TP,9 h,5.5 g/dL
same,gamma-GTP,9 h,1.6 IU/L
same,TERMINAL_BW,24 h,198.9 g
same,APTT,24 h,16.7 s
same,Bas,24 h,0%
same,Eos,24 h,0.8%
same,Fbg,24 h,219.6 mg/dL
same,Hb,24 h,13.3 g/dL
same,Ht,24 h,40.1%
same,Lym,24 h,78.6%
same,MCH,24 h,22 pg
same,MCHC,24 h,33.2%
same,MCV,24 h,66.3 fL
same,Mono,24 h,9.4%
same,Neu,24 h,11.4%
same,PT,24 h,12.3 s
same,Plat,24 h,102.8 x10_4/uL
same,RBC,24 h,606.4 x10_4/ul
same,Ret,24 h,8.7%
same,WBC,24 h,127.7 x10_2/uL
same,KIDNEY_L,24 h,0.9 g
same,KIDNEY_R,24 h,0.9 g
same,KIDNEY_TOTAL,24 h,1.8 g
same,LIVER,24 h,9.7 g
same,A/G,24 h,2.1
same,ALP,24 h,891 IU/L
same,ALT,24 h,38.8 IU/L
same,AST,24 h,68.6 IU/L
same,BUN,24 h,17 mg/dL
same,CRE,24 h,0.5 mg/dL
same,Ca,24 h,10.6 mg/dL
same,Cl,24 h,103.8 meq/L
same,DBIL,24 h,0.01 mg/dL
same,GLC,24 h,179.6 mg/dL
same,IP,24 h,7.6 mg/dL
same,K,24 h,5.3 meq/L
same,LDH,24 h,84.2 IU/L
same,Na,24 h,136.6 meq/L
same,PL,24 h,157.6 mg/dL
same,RALB,24 h,3.9 g/dL
same,TBIL,24 h,0.3 mg/dL
same,TC,24 h,85.6 mg/dL
same,TG,24 h,110.8 mg/dL
same,TP,24 h,5.8 g/dL
same,gamma-GTP,24 h,1.6 IU/L
